Measured values from patent publication US8530513B1, “Pharmaceutical uses of diterpene excavatolide B from a coral or an analogue thereof” (National Sun Yat-Sen University, priority 2012, dated 2013).

Key:
MMP-9 mRNA = experiment: TPA-induced MMP-9 mRNA expression in mouse skin, RT-PCR; format: in vivo; conditions: for TPA-induced MMP-9 mRNA expression (in words): topical after TPA, 6 h, indicated concentrations
Description: Shaven abdominal skins of female C57BL/6JNarl mice were untreated or topically treated with vehicle (acetone, […]) or TPA (10 nmol in […]) for 6 h or treated first with TPA for 10 min and then with the indicated concentrations of BrD1 for 6 h. Total RNA was extracted from treated abdominal skins of female mice using TRIzol reagent (Invitrogen Corp., Carlsbad, Calif.). RT-PCR reactions using AccessQuick RT-PCR system (Promega, Madison, Wis.) were carried out as described previously. The primers contained the following sequences: mouse MMP-9 sense primer 5′-[…]-3′ (SEQ ID NO. 1), and anti-sense primer 5′-[…]-3′ (SEQ ID NO. 2); mouse GAPDH sense primer 5′-[…]-3′ (SEQ ID NO. 3), and anti-sense primer 5′-[…]-3′ (SEQ ID NO. 4). Gel images were scanned and densitometry analysis of the captured image was performed using Gene Tools software (Syngene, Cambridge, UK).
Matrix metalloproteinases (MMPs) play a crucial role in many physiological and pathological processes through remodeling extracellular matrix tissues (Stamenkovic I. J Pathol 2003, 200:448-464). Matrix metalloproteinase-9 (MMP-9), a gelatinase which has a key role in inflammatory response, is activated in skin during tissue injury (Shakarjian M P, Bhatt P, Gordon M K, Chang Y C, Casbohm S L, Rudge T L, Kiser R C, Sabourin C L, Casillas R P, Ohman-Strickland P, Riley D J, Gerecke D R. J Appl Toxicol 2006, 26:239-246). In order to evaluate the anti-inflammatory effect of BrD1 on MMP-9 activation in TPA-inflamed skin, BrD1 was topically applied after TPA treatment for 24 h. […] Inhibiton of TPA-inducedMMP-9 expression by BrD1 treatment could also be readily observed at the mRNA level.

IκBα = experiment: TPA-stimulated IκBα phosphorylation in mouse skin, western blot; format: in vivo; conditions: topical for 2 h after TPA
Description: Shaven abdominal skins of female C57BL/6JNarl mice were not treated or topically treated with vehicle (acetone, 200 μl/site) or TPA (10 nmol in 200 μl acetone/site) at indicated time points or treated first with TPA for 10 min, then with the indicated concentrations of BrD1 at the indicated time points. Abdominal skin samples were collected, homogenated and lysed to prepare total proteins. Protein samples were subsequently resolved by SDS-PAGE using a gradient gel. The resolved proteins were transferred to a PVDF Immobilon-P membrane (Millipore, Bedford, Calif.), and the membrane was blocked with 5% non-fat dry milk in PBST buffer (phosphate-buffered saline (PBS) containing 0.1% Tween 20) for 60 minutes at room temperature. The membranes were incubated overnight at 4° C. with commercially available antibodies (1:1000 dilutions). Loading of equal amounts of protein was assessed using mouse β-actin. The blots were rinsed three times with PBST buffer for 5 minutes. Washed blots were incubated with HRP-conjugated secondary antibody (1:100,000 dilution), then washed again three times with PBST buffer. […] Quantification of bands was performed using Image J software.
We therefore evaluated whether BrD1 could interfere with TPA-induced activation of Akt and Erk in inflamed skin. […] We thus determined the phosphorylation level of Akt, Erk, NF-κB and IκBα in skins subjected to different treatments. […]

[1] = system: abdominal skins of female C57BL/6 mice; experiment: TPA-induced vascular permeability assay (Evans blue extravasation); format: in vivo, mouse; conditions: Evans blue OD 620 nm
Description: TPA-induced vascular permeability assay was modified and performed as previously described (Thurston G, Suri C, Smith K, McClain J, Sato T N, Yancopoulos G D, McDonald D M. Science 1999, 286:2511-2514). Shaved abdominal skins of female C57BL/6JNarl mice were topically treated with vehicle (acetone, 200 μl/site) or TPA (10 nmol in 200 μl acetone/site) for 6 h or treated with TPA for 10 min and subsequently treated for 6 h with the indicated concentrations of BrD1. Abdominal skins of untreated mice were used as the control group. One percent Evans blue dye (100 μl) was injected into mouse tail veins. After 20 min, anatomical appearances of mouse abdomens from the various treatments were photographically recorded. Abdominal skins representative of each test group were removed, turned over and photographed. Evans blue dye extravasated into the skins was extracted by incubation of the skin samples in 99% N,N-dimethyl-formamide overnight at 60° C. and optical density was measured at 620 nm.
Acute inflammatory reactions are known to include changes in vascular permeability, edema and cellular infiltration (Rao T S, Currie J L, Shaffer A F, Isakson P C. Inflammation 1993, 17:723-741). In order to evaluate the anti-inflammatory effect of BrD1 on TPA-induced dermatitis in a murine model, we initially evaluated the possible inhibitory effect of BrD1 on TPA-induced vascular permeability. […]

## CCCC(=O)O[C@H]1C/C(C)=C\[C@@H]2OC(=O)[C@]3(C)O[C@]23[C@@H](OC(C)=O)[C@H]2[C@@H](C)[C@@H](O)C[C@H](OC(C)=O)[C@]2(C)[C@H]1OC(C)=O [BrD1, excavatolide B]
MMP-9 mRNA; 1 mg/site/mouse topical, 6 h after TPA
  inhibition of TPA-induced MMP-9 mRNA expression: ≤ 82%
MMP-9 mRNA
  TPA-induced MMP-9 mRNA expression (in words): significantly inhibited MMP-9 mRNA expression in a dose-dependent manner
MMP-9 mRNA; listed as excavatolide B
  TPA-induced MMP-9 mRNA expression (in words): significantly inhibits MMP-9 mRNA expression in a dose-dependent manner
IκBα
  TPA-stimulated phosphorylation of IκBα: significantly inhibited the TPA-stimulated phosphorylation of Akt and IκBα
IκBα; listed as excavatolide B
  TPA-stimulated phosphorylation of IκBα: significantly inhibits the TPA-stimulated phosphorylation of Akt and IκBα
[1]; 0.5 mg/site topical for 6 h after TPA (10 nmol) 10 min
  level of inhibition of TPA-induced vascular permeability: approximately 58%
[1]; 1 mg/site topical for 6 h after TPA (10 nmol) 10 min
  level of inhibition of TPA-induced vascular permeability: ~77%
